Usually Ki stands for the equilibrium dissociation constant of an inhibitor or competing ligand from its target. What is called EC50 is the concentration that produces a half-maximal response.

Structures are written as SMILES. Like-named read-outs stand apart in the source and are kept apart here.

The target in data set [1] is T1, rat adenosine A2a receptors (Rattus norvegicus, UniProt P30543).
T1 construct: from tissue; host or cells: rat striatum (membranes)
In words: Binding at rat A2a receptors, rat striatal membranes, [3H]-CGS21680. On the procedure: Chemical structures of compounds of the invention are given in the Examples below. Binding experiments were carried out using rat A2a receptors. Ki values were determined for each compound at pH 5.5 and pH 7.4.

Data set [2] relates to U937 human macrophage cells. To be noted: cited from earlier work.
The nature of data set [3]: Tachycardia by 12 lead ECGs in human volunteers. It counts as in vivo. The procedure:
Tachycardia was determined using 12 lead ECGs.

The conditions of data set [4]: 20 mg/kg po; cited from earlier work.
In a further data set the target is adenosine A2A receptor (Homo sapiens, UniProt P29274). In words: EC50 at the adenosine A2A receptor. It counts as biochemical. The source says:
For the avoidance of doubt, the EC50 value of a compound is defined herein as the concentration of the compound that provokes a receptor response halfway between the baseline receptor response and the maximum receptor response (as determined, for example, using a dose-response curve).
The EC50 value should be determined under standard conditions (balanced salt solutions buffered to pH 7.4). For EC50 determinations using isolated membranes, cells and tissues this would be in buffered salt solution at pH 7.4 (e.g. cell culture medium), for example as in Daly et al., Pharmacol. (1993) 46, 91-100), or preferably as in Tilburg et al (J. Med. Chem. (2002) 45, 91-100). The EC50 could also be determined in vivo by measuring adenosine receptor mediated responses in a normal healthy animal, or even in a tissue perfused under normal conditions (i.e. oxygenated blood, or oxygenated isotonic media, also buffered at pH 7.4) in a normal healthy animal.

A short description of data set [5]: Plasma concentrations after single oral dosing in human volunteers. It counts as in vivo.
Data set [6] relates to carageenan-induced inflammation. The following applies: rats, 20 mg/kg po; cited from earlier work.
Data set [7] deals with rat adjuvant model of arthritis. Description: Analgesic relief in rat adjuvant model of arthritis. The data set is classed as in vivo.
Data set [8] in a line: Minimum effective analgesic plasma concentration in the rat. The data set is classed as in vivo.
Setting [9] is: pH 5.5, read-out: (Ki) nM (pH 5.5).
Where [10] appears, read: pH 7.4, read-out: (Ki) nM (pH 7.4).

T1 sequence (P30543 whole entry): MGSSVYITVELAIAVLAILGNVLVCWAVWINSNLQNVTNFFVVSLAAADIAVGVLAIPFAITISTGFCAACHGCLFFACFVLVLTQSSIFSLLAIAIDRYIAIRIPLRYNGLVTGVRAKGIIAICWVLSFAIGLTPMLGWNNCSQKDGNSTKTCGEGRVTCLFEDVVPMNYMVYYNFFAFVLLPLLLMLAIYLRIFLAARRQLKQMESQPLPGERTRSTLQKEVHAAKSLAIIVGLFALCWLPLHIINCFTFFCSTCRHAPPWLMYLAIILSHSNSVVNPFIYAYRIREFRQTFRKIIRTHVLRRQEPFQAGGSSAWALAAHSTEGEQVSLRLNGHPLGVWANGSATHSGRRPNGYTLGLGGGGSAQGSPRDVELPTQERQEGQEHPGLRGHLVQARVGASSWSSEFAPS
Sequence of adenosine A2A receptor (P29274 whole entry): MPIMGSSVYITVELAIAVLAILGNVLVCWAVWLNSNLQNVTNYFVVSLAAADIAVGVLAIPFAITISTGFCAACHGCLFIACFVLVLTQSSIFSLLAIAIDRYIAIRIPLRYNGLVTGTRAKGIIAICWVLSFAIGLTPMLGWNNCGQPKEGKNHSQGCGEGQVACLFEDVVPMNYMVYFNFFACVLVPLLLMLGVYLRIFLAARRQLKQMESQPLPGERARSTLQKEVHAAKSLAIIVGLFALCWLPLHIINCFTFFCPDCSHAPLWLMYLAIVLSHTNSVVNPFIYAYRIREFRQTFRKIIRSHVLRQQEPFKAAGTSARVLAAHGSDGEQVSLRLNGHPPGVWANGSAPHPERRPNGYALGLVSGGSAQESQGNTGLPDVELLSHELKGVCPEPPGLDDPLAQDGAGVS

Turning to `CCCCNc1nc(N)c2ncn([C@@H]3O[C@H](CO)[C@@H](O)[C@H]3O)c2n1` [NHCH2CH2CH2CH3], the values for the Ki in data set [1] (setting [9]) and in data set [1] (setting [10]) were 47 nM and 17 nM, respectively.
For `CCCNc1nc(N)c2ncn([C@@H]3O[C@H](CO)[C@@H](O)[C@H]3O)c2n1` [NHCH2CH2CH3] the same measures were 1900 nM and 1900 nM.
`COc1nc(N)c2ncn([C@@H]3O[C@H](CO)[C@@H](O)[C@H]3O)c2n1` [spongosine, 2-methoxyadenosine]: in data set [2], the “phorbol ester induced TNF alpha release” value is given as “reduce phorbol ester induced TNF alpha release”. Besides, the Tachycardia side effect result in data set [3] (single oral dose 0.2 mg) is given as “No”; in [3] (single oral dose 0.8 mg), “No”; in [3] (single oral dose 3.5 mg), “No”; in data set [3] (single oral dose 10.5 mg), “No”; in data set [3] (single oral dose 21 mg), “No”; in data set [3] (single oral dose 28 mg), “Yes”. In addition, the “reduction in heart rate” value in data set [4] is 25%. Also, the “reduction in mean blood pressure” value in [4] is 41%. The EC50 at adenosine A2A receptor was ~1000 nM. Besides, the “time with plasma concentrations greater than […]” value in data set [5] (human, 0.8 mg oral) was “approximately 1.5 h”. Moreover, the “minimum effective dose in the human” value in data set [5] (suggested from rat minimum effective plasma concentration) was “approximately 0.8 mg”. Besides, in data set [6], the “inhibition of carageenan-induced inflammation” value is recorded as 25%. The “minimum plasma concentration giving maximal analgesic relief” value in [7] stood at 0.06 µM. For the same molecule, the “minimum effective analgesic plasma concentration” value in data set [8] is 0.025 µM.

Values taken from patent US7807685B2, “Therapeutic compounds” (CBT Development Limited, priority 2006, dated 2010).
